Experimental data taken from US11970505B1, “Pyridino-2,16-dioxapentacyclo[7.7.5.01,21.03,8.010,15]henicosa3(8),10,12,14-tetraene-7,20-dione as an antimicrobial compound” (KING FAISAL UNIVERSITY, priority 2023, dated 2024).

Key:
Assay type in all cases: cell-based
Conditions in all cases: after 10, 20, 40 and 60 minutes at all dilutions 1:100, 1:200, 1:400, and 1:800
Staphylococcus aureus = assay: Antimicrobial activity by agar dilution, St. Aereus
Method: (§1) The antibacterial properties of the synthesized compound (pyridino-2,16-dioxapentacyclo[7.7.5.0^1,21.0^3,8.0^10,15]henicosa3(8),10,12,14-tetraene-7,20-dione) were studied by the method of agar dilution. Test solutions of each compound was prepared in concentration of 1% using dimethylformamide as a solvent. Then they were diluted in physiological solution to obtain the final experimental dilutions of 1:100, 1:200, 1:400, and 1:800. The effect of these substances were compared with furacillin in a controllable study. The testing microbes used were gram positive bacteria Staphylococcus aureus, gram negative bacteria Pseudomonas aeruginosa, Escherichia coli, and Candida albicans fungus. The experiments used for this survey were meat-pentonlu agar (EPA) for cultivation of bacteria and Saburo environment for fungi. Each experiment used 1 mL of test solution on each plate for 500 minutes. Two drops of emulsified with microbes feel were added. All experimental samples were taken from the agar after 10, 20, 40, 60 minutes in the environment on the basis of Patrk planted. Bacteria were cultivated at a temperature of 37° C. for 1 day and the mushroom was kept in a thermostat for […] at a temperature of 28° C. Then results were checked. Those of control and the antimicrobial activity for the synthesized compounds are listed in Table 1 below, with furacillin serving as a reference.

Escherichia coli = assay: Antimicrobial activity by agar dilution, E. Coli
Method: as §1

Pseudomonas aeruginosa = assay: Antimicrobial activity by agar dilution, Ps. aeruginosa
Method: as §1

Candida albicans = assay: Antimicrobial activity by agar dilution, Candida albicans
Method: as §1

O=C1CCCC2=C1C1c3cccnc3OC3(CCCC(=O)C13)O2 (stereo not shown) [pyridino-2,16-dioxapentacyclo[7.7.5.0^1,21.0^3,8.0^10,15]henicosa3(8),10,12,14-tetraene-7,20-dione]
higher inhibition activity: inhibition activity compared with Furacilin, Staphylococcus aureus (Staphylococcus aureus) | inhibition activity compared with Furacilin, Escherichia coli (Escherichia coli) | inhibition activity compared with Furacilin, Pseudomonas aeruginosa (Pseudomonas aeruginosa) | inhibition activity compared with Furacilin, Candida albicans (Candida albicans)
